Data published in patent US20250255847A1, “[…]s: Novel Drugs for Triple Negative Breast Cancer” (SIMMARON RSEARCH INC, priority 2024, published 2025).

Experiments:
[1] = Health vitals and open-field test in PDX mice; assay type: in vivo, mouse; conditions: end of study, 2 mg/Kg Bwt i.p.
Method: FIG. 12 illustrates an embodiment of the present invention and illustrates SIM-1 and SIM-2 arrest the growth of human TNBC tumor in patient-derived xenograft mouse model. TM00096 tumor (origin of invasive ductal carcinoma isolated from a person) was seeded in the flank of 6-week-old female SCID mice by Jackson Laboratory and then shipped to our research facility. Once the tumor reached ˜4 mm in size (˜30 mm^3 in volume), n=6 mice/group were treated by vehicle (5% DMSO), SIM-1 and SIM-2 (2 mg/Kg Bwt mixed with 5% DMSO) via i.p. for 2 weeks in every alternate day. The tumor size was monitored accordingly during the treatment and two more weeks after the last dose to evaluate the recurrence. […] (B) Tumor size was measured every alternate day for 4 weeks by a digital caliper and then the volume was calculated using the formula 0.5*Length*Width^2. […] (D) Body weight was recorded during the course of the study to monitor the adverse metabolic outcome due to the drug administration. (E) The heart rate was monitored at 0-, 7-, 14-, and 28-days post SIM-1 and SIM-2 treatments by MouseStat Jr console (Kent Scientific) as per the manufacturer's instruction. (F) At the end of the study, the gross motor performance was recorded for n=6 (i) vehicle, (ii) SIM-1-, and (iii) SIM-2-treated mice. […]

[2] = tested on: human mammary epithelial cells (HMECs); test: LDH assay in healthy human mammary epithelial cells; assay type: cell-based; conditions: 1, 2, 5, 10 and higher nM doses, 48 hrs
Method: FIG. 11 illustrates an embodiment of the present invention and illustrates SIM-1 and SIM-2 induced apoptosis in MDA-MB-468 TNBC cells, but not HMEC control cells. MDA-MB-468 cells were treated with increasing doses of (A) SIM-1 and (B) SIM-2 for 48 hrs followed by lactate dehydrogenase (LDH) release assay in the supernatants. The result was offset with cell-bound LDH and presented as a percent of DMSO control as discussed under method section. Half-maximal cytotoxicity or CT50 analyses were performed plotting maximum response as an index of increasing doses of (C) SIM-1 and (D) SIM-2. AnnexinV (green) and propidium iodide (red) dual-labeling were performed to evaluate apoptotic response in MDA-MB-468 cells once treated with increasing doses of (E) SIM-1 and (F) SIM-2 for 24 hrs. Nuclei were stained with DAPI. TUNEL assay was performed in MDA-MB-468 cells after treatment with 25 nM of (G) SIM-1. Brown-colored TUNEL bodies were visualized at cresyl violet-stained blue nuclei. (H) The number of TUNEL bodies were counted as a percent of 100 cresyl violet-stained blue cells. Ten independent images were counted for the quantification study. Similarly, SIM-2 was assessed for (I) TUNEL and (J) subsequent quantification analyses. […]
LDH Assay. […] Each dose was measured in triplicates. […] The plate was read at 490 nm (background at 680 nm). […]

| Compound | open-field test: gross movement, total distance traveled, average speed [1] | cell death in HMEC cells (LDH) compared to DMSO control [2] |
| --- | --- | --- |
| O=C(O)CCC(=O)NCc1csc2ccc(Cl)cc12 [SIM-1, 4-[(5-chloro-1-benzothiophen-3-yl)methylamino]-4-oxobutanoic acid] | did not show any adverse outcome | unable to augment any significant cell death |
| CCOC(=O)c1c(NC(C)=O)sc2c(Cl)c(/C=N/O)ccc12 [SIM-2, ethyl 2-acetamido-7-chloro-6-(hydroxyiminomethyl)-1-benzothiophene-3-carboxylate] | did not show any adverse outcome | unable to augment any significant cell death |
